Publication PMC6449538, “Antimicrobial Activity of Selected Antimicrobial Peptides Against Planktonic Culture and Biofilm of Acinetobacter baumannii” (Probiotics and Antimicrobial Proteins, 2018)
≈ marks a conversion by molar mass, not a printed value. Like-named read-outs stand apart in the source and are kept apart here. Where no end group is shown, it is not given here.

Key:
[1] = test system: A. baumannii ATCC 19606 biofilm; type: cell-based, Acinetobacter baumannii
Protocol: (§1) The A. baumannii ATCC 19606 strain was acquired from the American Type Culture Collection and prepared in line with the manufacturer’s instructions. The culture was stored in Roti®-Store Cryo-Vials (Carl Roth GmbH, Karlsruhe, Germany) at − 20 °C. Before the tests, the bead with cryo-protected bacteria was transferred into fresh MHB (Biocorp, Warsaw, Poland) and incubated for 24 h at 37 °C. Then, the culture was seeded on MHA plates and incubated as just mentioned. The agar cultures prepared in this way were used for further experiments. Cell densities for all assays were adjusted spectrophotometrically (Multiskan™ GO Microplate Spectrophotometer, Thermo Scientific) at 600 nm.
The antibiofilm activity was determined on 96-well flat-bottomed microtiter polystyrene plates and 0.5-cm fragments of tracheal tubes (RIM-75, ZARYS International Group, Zabrze, Poland), with resazurin (7-hydroxy-3H-phenoxazin-3-one 10-oxide) as a cell viability reagent. The first part included assay on 96-well plates. To do this, the plates were filled with 100 μL of the initial inoculums of bacteria (0.5 × 10^7 CFU/mL) in the MHB and incubated for 24 h at 37 °C. Then, the wells were rinsed three times with PBS to remove non-adhered cells and the fresh medium with a series of concentrations (0.5–256 μg/mL) of the compounds was added. After 24 h of incubation, 20 μL of resazurin (4 mg/mL) was added to each well and the MBEC values were read. The assay on tracheal tube fragments was conducted using 24-well polystyrene plates. Briefly, the tracheal tube fragments were dipped in 1 mL of the bacterial inoculum (0.5 × 10^7 CFU/mL) and incubated at 37 °C. After 24 h of incubation, the test fragments were rinsed three times with PBS and transferred into other wells containing the fresh medium with a series of concentrations of the test compounds. Subsequently, the plates were incubated again for 24 h at 37 °C. Then, 200 μL of resazurin was added and the MBEC was read. All experiments were conducted in triplicate.

A. baumannii ATCC 19606 = experiment: microbe, parasite or virus in culture; type: cell-based, Acinetobacter baumannii
Protocol: as §1
The MICs and MBCs were determined with the reference to the Clinical and Laboratory Standards Institute guidelines. MICs were determined by broth microdilution method. For this purpose, initial inoculums of bacteria (0.5 × 10^5 CFU/mL) in MHB were exposed to a series of concentrations (0.5–256 μg/mL) of the compounds and incubated for 18 h at 37 °C. The experiments were conducted on 96-well microtiter polystyrene plates with the final volume of 100 μL. The MIC was taken as the lowest drug concentration at which a noticeable growth of microorganisms was inhibited. In parallel, the MIC wells, two above and one below (positive control), were cultured on a MHA plate. […] All experiments were conducted in triplicate.

[2] = 24 h biofilm on 0.5-cm tracheal tube fragments, 24 h treatment at 37 °C, resazurin read-out, triplicate
[3] = 24 h biofilm on polystyrene 96-well plates, 24 h treatment at 37 °C, resazurin read-out, triplicate
[4] = Acinetobacter baumannii, ATCC19606, MIC wells cultured on MHA plate, 24 h at 37 °C, no visible growth, triplicate, read-out: MBC
[5] = Acinetobacter baumannii, ATCC19606, broth microdilution (CLSI), MHB, inoculum 0.5 × 10^5 CFU/mL, 18 h at 37 °C, polystyrene 96-well plates, triplicate, read-out: MIC
[6] = MIC wells cultured on MHA plate, 24 h at 37 °C, no visible growth, triplicate
[7] = broth microdilution (CLSI), MHB, inoculum 0.5 × 10^5 CFU/mL, 18 h at 37 °C, polystyrene 96-well plates, triplicate

Molecule	MBEC^tt [1, 2] [µg/mL]	MBEC [1, 3]	MBC (A. baumannii ATCC 19606; [4]) [µg/mL]	MIC (A. baumannii ATCC 19606; [5]) [µg/mL]	MBEC^tt ([1]; 24 h biofilm on 0.5-cm tracheal tube fragments, 24 h treatment at 37 °C, resazurin read-out, triplicate, listed as piperacillin)	MBEC^tt ([1]; ATCC 19606, 24 h) [µg/mL]	MIC (A. baumannii ATCC 19606; ATCC 19606, 18 h) [µg/mL]	MBC (A. baumannii ATCC 19606; ATCC 19606, 24 h) [µg/mL]	MBEC ([1]; ATCC 19606, 24 h) [µg/mL]	MBC (A. baumannii ATCC 19606; [6]) [µg/mL]	MIC (A. baumannii ATCC 19606; [7]) [µg/mL]
O=C(O)c1cn(C2CC2)c2cc(N3CCNCC3)c(F)cc2c1=O [Ciprofloxacin, reference compound]	1	2 µg/mL	1 (≈ 3.02 µM)	–	–	–	–	–	–	–	–
CC[C@H]1OC(=O)[C@H](C)[C@@H](O[C@H]2C[C@@](C)(OC)[C@@H](O)[C@H](C)O2)[C@H](C)[C@@H](O[C@@H]2O[C@H](C)C[C@H](N(C)C)[C@H]2O)[C@](C)(O)C[C@@H](C)C(=O)[C@H](C)[C@@H](O)[C@]1(C)O [Erythromycin, reference compound]	16	32 µg/mL	32 (≈ 43.6 µM)	32 (≈ 43.6 µM)	–	–	–	–	–	–	–
CNC(C)C1CCC(N)C(OC2C(N)CC(N)C(OC3OCC(C)(O)C(NC)C3O)C2O)O1 (stereo not drawn) [Gentamicin, reference compound]	32	32 µg/mL	32 (≈ 67 µM)	16 (≈ 33.5 µM)	–	–	–	–	–	–	–
CCN1CCN(C(=O)N[C@@H](C(=O)N[C@@H]2C(=O)N3[C@@H]2SC(C)(C)[C@@H]3C(=O)O)c2ccccc2)C(=O)C1=O [Piperacillin, reference compound]	> 512	failed to eradicate the biofilm at any concentration	128 (≈ 247 µM)	64 (≈ 124 µM)	failed to eradicate the biofilm at any concentration	–	–	–	–	–	–
CO[C@H]1/C=C/O[C@@]2(C)Oc3c(C)c(O)c4c(O)c(c(/C=N/N5CCN(C)CC5)c(O)c4c3C2=O)NC(=O)/C(C)=C\C=C\[C@H](C)[C@H](O)[C@@H](C)[C@@H](O)[C@@H](C)[C@H](OC(C)=O)[C@@H]1C [Rifampicin, reference compound]	4	8 µg/mL	4 (≈ 4.86 µM)	4 (≈ 4.86 µM)	–	–	–	–	–	–	–
CN(C)[C@@H]1C(O)=C(C(N)=O)C(=O)[C@@]2(O)C(O)=C3C(=O)c4c(O)cccc4[C@@](C)(O)[C@H]3C[C@@H]12 [Tetracycline, reference compound]	4	16 µg/mL	4 (≈ 9 µM)	2 (≈ 4.5 µM)	–	–	–	–	–	–	–
FLPLIGRVLSGIL-NH2 [Temporin A]	–	–	–	–	–	256	128	128	–	–	–
GIGKFLKKAKKFGKAFVKILKK-NH2 [Pexiganan]	–	–	–	–	–	32	2	4	256	–	–
GLFDIIKKIAESF-NH2 [Aurein 1.2]	32	64 µg/mL	–	–	–	–	–	–	–	16	16
GLFDVIKKVASVIGGL-NH2 [Citropin 1.1]	–	–	–	–	–	32	16	16	256	–	–
ILRWPWWPWRRK-NH2 [Omiganan]	–	–	–	–	–	128	32	64	256	–	–
KRRWPWWPWRLI-NH2 [r-Omiganan]	–	–	–	–	–	128	16	16	256	–	–
KWKLFKKIGAVLKVL-NH2 [CAMEL]	64	128 µg/mL	–	–	–	–	–	–	–	4	2
